This is an account of results in ChEMBL document CHEMBL5137051 (Eur J Med Chem, 2022).

For test [1], the system named is NCI-H1975. Nature of the test: Antiproliferative activity against human H1975 cells assessed as cell viability after 72 hrs by MTT assay. The format is functional, cell-based. Particulars: NCI-H1975, 72 h.
Test [2] has as its system NCI-H1975. The test can be described thus: Induction of cell cycle arrest in human H1975 cells assessed as number of cells at G1/G0 phase at 1.3 uM after 24 hrs by flow cytometry (reference value: 43.18%). The format is functional.
Test [3] addresses Epidermal growth factor receptor (Homo sapiens, UniProt P00533). Nature of the test: Inhibition of wild type EGFR (unknown origin) by mobility shift assay.
Test [4] has as its system NCI-H1975. The test can be described thus: Induction of apoptosis in human H1975 cells assessed as cell shrinkage after 48 hrs by AO/EB staining based fluorescent microscopic analysis. The format is functional. As to conditions: dose 0.1-10 µM, DDE = dose-dependent effect.
The test system of test [5] is NCI-H1975. Nature of the test: Induction of cell cycle arrest in human H1975 cells assessed as number of cells at G1/G0 phase at 12 uM after 24 hrs by flow cytometry (reference value: 43.18%). The format is functional. (In flow cytometry, cells or beads pass a laser one at a time.)
The target in test [6] is Epidermal growth factor receptor (Homo sapiens, UniProt P00533, L858R/T790M). Nature of the test: Inhibition of EGFR L858R/T790M mutant (unknown origin) by mobility shift assay.
In test [7] the test system is A549. Nature of the test: Antiproliferative activity against human A549 cells assessed as cell viability after 72 hrs by MTT assay. Particulars: A549, 72 h. The format is functional, cell-based.
For test [8], the system named is Epidermal growth factor receptor (Homo sapiens), P00533 [L858R,T790M,C797S]. Particulars: dose 300.0 nM.
Test [9] deals with NCI-H1975. Nature of the test: Induction of cell cycle arrest in human H1975 cells assessed as number of cells at G2/M phase at 4 uM after 24 hrs by flow cytometry (reference value: 31.41%). The format is functional.
In test [10] the test system is NCI-H1975. The test can be described thus: Induction of cell cycle arrest in human H1975 cells assessed as number of cells at G1/G0 phase at 4 uM after 24 hrs by flow cytometry (reference value: 43.18%). The format is functional.
Test [11] relates to NCI-H1975. Nature of the test: Induction of cell cycle arrest in human H1975 cells assessed as number of cells at G2/M phase at 1.3 uM after 24 hrs by flow cytometry (reference value: 31.41%). The format is functional.
Test [12] concerns the target Hepatocyte growth factor receptor (Homo sapiens, UniProt P08581). The test can be described thus: Inhibition of c-Met (unknown origin) by mobility shift assay.
For test [13], the system named is A549. The test can be described thus: Induction of apoptosis in human A549 cells assessed as chromatin condensation after 48 hrs by AO/EB staining based fluorescent microscopic analysis. The format is functional, cell-based. Particulars: dose 0.1-10 µM, DDE = dose-dependent effect.
The subject of test [14] is NCI-H1975. The test can be described thus: Induction of apoptosis in human H1975 cells assessed as chromatin condensation after 48 hrs by AO/EB staining based fluorescent microscopic analysis. The format is functional, cell-based. Particulars: dose 0.1-10 µM, DDE = dose-dependent effect.
The subject of test [15] is NCI-H1975. Nature of the test: Induction of cell cycle arrest in human H1975 cells assessed as number of cells at S phase at 1.3 uM after 24 hrs by flow cytometry (reference value: 25.41%). The format is functional.
In test [16] the test system is NCI-H1975. The test can be described thus: Induction of cell cycle arrest in human H1975 cells assessed as number of cells at S phase at 12 uM after 24 hrs by flow cytometry (reference value: 25.41%). The format is functional.
The target of test [17] is Epidermal growth factor receptor (Homo sapiens, UniProt P00533, C797S/L858R/T790M). The test can be described thus: Inhibition of EGFR L858R/T790M/C797S mutant (unknown origin) by mobility shift assay.
Test [18] concerns NCI-H1975. The test can be described thus: Inhibition of cell migration of human H1975 cells at 0.1 to 1 uM after 24 hrs by scratch wound healing assay. The format is functional, cell-based. Particulars: dose 0.1-1 µM.
Test [19] relates to A549. Nature of the test: Inhibition of cell migration of human A549 cells at 0.1 to 1 uM after 24 hrs by scratch wound healing assay. The format is functional, cell-based. Particulars: dose 0.1-1 µM.
Test [20] deals with NCI-H1975. The test can be described thus: Induction of cell cycle arrest in human H1975 cells assessed as number of cells at G2/M phase at 12 uM after 24 hrs by flow cytometry (reference value: 31.41%). The format is functional.
Test [21] deals with A549. The test can be described thus: Induction of apoptosis in human A549 cells assessed as cell shrinkage after 48 hrs by AO/EB staining based fluorescent microscopic analysis. The format is functional. As to conditions: dose 0.1-10 µM, DDE = dose-dependent effect.
Test [22] has as its system NCI-H1975. The test can be described thus: Induction of cell cycle arrest in human H1975 cells assessed as number of cells at S phase at 4 uM after 24 hrs by flow cytometry (reference value: 25.41%). The format is functional.

The source made the active and inactive calls. The rule behind the calls is not given here.

Chain of Epidermal growth factor receptor (Homo sapiens, UniProt P00533, C797S/L858R/T790M) (P00533 25-1210 T790M/C797S/L858R limits assumed): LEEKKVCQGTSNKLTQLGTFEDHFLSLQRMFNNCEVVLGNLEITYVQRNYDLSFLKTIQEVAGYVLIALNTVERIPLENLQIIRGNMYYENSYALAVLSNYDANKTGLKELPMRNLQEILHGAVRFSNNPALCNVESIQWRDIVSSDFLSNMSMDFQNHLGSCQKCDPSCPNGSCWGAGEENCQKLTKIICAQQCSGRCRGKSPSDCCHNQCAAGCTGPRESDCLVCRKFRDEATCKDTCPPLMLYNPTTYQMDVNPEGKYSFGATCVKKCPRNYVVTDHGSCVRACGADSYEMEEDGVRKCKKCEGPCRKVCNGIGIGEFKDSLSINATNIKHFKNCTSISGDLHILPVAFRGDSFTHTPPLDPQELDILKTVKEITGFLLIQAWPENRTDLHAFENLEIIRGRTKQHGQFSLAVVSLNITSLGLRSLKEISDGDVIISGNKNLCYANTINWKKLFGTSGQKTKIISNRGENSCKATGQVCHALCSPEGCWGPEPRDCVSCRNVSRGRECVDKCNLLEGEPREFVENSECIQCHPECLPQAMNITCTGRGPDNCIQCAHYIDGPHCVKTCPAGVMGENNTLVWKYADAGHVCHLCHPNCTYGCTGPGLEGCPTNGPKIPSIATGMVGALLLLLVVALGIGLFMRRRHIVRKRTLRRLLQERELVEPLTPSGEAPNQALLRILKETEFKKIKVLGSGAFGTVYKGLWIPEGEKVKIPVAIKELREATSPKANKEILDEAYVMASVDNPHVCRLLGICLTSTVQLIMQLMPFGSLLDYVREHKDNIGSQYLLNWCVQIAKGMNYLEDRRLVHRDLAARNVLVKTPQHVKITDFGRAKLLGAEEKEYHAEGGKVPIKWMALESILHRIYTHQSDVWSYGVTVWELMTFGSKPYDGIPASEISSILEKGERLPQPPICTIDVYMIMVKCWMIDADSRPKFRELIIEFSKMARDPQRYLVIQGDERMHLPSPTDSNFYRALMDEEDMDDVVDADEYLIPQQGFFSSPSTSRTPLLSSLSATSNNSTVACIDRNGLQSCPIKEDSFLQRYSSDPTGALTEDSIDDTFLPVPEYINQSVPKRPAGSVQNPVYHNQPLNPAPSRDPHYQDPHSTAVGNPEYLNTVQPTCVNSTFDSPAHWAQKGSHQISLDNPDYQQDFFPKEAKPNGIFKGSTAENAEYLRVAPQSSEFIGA
Chain of Hepatocyte growth factor receptor (P08581 whole entry): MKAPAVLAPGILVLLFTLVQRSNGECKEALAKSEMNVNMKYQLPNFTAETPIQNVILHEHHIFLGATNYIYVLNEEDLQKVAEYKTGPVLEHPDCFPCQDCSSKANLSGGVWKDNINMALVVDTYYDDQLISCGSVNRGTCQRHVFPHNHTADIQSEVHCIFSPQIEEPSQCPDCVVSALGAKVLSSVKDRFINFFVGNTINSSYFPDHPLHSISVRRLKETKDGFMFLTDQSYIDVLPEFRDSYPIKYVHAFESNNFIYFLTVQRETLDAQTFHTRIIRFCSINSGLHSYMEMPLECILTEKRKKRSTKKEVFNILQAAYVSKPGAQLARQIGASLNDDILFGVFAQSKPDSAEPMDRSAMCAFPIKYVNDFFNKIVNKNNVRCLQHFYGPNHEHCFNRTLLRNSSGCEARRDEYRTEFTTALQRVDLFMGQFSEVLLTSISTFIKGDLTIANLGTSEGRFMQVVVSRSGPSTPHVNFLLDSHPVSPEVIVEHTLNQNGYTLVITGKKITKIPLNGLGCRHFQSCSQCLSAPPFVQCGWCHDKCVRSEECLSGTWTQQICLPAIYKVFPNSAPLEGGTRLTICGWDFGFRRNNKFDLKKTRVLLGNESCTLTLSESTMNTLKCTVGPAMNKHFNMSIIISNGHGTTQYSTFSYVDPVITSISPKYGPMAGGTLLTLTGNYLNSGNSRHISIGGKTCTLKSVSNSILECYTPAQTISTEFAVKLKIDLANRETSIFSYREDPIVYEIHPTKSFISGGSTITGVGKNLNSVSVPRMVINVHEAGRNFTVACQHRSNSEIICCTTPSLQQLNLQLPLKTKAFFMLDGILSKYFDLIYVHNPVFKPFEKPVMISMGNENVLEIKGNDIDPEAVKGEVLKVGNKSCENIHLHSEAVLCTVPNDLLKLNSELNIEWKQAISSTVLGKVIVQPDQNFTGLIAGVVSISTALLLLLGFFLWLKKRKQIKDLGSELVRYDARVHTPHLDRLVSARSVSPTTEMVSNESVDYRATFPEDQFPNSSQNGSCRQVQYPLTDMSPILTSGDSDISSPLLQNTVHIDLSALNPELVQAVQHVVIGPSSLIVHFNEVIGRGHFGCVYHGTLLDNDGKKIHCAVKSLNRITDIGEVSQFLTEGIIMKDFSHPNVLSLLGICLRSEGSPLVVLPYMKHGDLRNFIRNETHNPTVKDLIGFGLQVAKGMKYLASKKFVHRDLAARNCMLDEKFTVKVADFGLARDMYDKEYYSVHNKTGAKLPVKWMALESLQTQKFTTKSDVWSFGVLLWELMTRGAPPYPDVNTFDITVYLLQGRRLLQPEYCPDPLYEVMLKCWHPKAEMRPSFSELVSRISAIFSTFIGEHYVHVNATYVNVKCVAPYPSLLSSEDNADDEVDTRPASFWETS
Chain of Epidermal growth factor receptor (Homo sapiens, UniProt P00533) (P00533 whole entry): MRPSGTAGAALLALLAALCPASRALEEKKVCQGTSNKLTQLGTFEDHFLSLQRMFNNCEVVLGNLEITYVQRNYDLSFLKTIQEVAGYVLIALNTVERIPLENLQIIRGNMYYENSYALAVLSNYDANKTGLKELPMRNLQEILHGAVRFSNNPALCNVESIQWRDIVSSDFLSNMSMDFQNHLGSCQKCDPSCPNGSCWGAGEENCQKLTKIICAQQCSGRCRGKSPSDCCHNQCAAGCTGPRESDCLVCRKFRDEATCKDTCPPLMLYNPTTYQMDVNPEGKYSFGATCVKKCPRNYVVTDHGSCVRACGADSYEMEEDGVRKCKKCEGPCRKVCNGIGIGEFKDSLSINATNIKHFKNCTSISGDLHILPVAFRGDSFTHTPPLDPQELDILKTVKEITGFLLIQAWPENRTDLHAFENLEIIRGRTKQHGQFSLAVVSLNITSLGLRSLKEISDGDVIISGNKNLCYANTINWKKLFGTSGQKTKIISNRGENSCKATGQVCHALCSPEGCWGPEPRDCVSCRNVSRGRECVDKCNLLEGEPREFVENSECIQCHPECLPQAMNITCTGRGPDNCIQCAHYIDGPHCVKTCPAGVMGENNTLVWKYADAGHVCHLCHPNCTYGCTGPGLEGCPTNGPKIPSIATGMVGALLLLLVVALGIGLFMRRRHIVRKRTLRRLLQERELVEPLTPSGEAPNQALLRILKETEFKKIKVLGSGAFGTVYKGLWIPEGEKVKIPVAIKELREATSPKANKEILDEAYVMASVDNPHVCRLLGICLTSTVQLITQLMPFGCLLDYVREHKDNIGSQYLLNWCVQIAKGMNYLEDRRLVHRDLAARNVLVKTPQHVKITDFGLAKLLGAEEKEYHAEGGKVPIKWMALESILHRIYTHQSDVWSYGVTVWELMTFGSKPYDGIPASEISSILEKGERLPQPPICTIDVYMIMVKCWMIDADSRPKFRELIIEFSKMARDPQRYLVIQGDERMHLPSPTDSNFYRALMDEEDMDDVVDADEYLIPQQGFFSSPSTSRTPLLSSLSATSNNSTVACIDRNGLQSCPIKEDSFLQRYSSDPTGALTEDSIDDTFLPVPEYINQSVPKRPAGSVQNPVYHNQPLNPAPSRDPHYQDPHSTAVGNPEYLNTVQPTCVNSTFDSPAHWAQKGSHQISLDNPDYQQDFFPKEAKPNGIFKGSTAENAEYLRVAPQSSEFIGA
Chain of Epidermal growth factor receptor (Homo sapiens), P00533 [L858R,T790M,C797S] (P00533 whole entry T790M/C797S/L858R): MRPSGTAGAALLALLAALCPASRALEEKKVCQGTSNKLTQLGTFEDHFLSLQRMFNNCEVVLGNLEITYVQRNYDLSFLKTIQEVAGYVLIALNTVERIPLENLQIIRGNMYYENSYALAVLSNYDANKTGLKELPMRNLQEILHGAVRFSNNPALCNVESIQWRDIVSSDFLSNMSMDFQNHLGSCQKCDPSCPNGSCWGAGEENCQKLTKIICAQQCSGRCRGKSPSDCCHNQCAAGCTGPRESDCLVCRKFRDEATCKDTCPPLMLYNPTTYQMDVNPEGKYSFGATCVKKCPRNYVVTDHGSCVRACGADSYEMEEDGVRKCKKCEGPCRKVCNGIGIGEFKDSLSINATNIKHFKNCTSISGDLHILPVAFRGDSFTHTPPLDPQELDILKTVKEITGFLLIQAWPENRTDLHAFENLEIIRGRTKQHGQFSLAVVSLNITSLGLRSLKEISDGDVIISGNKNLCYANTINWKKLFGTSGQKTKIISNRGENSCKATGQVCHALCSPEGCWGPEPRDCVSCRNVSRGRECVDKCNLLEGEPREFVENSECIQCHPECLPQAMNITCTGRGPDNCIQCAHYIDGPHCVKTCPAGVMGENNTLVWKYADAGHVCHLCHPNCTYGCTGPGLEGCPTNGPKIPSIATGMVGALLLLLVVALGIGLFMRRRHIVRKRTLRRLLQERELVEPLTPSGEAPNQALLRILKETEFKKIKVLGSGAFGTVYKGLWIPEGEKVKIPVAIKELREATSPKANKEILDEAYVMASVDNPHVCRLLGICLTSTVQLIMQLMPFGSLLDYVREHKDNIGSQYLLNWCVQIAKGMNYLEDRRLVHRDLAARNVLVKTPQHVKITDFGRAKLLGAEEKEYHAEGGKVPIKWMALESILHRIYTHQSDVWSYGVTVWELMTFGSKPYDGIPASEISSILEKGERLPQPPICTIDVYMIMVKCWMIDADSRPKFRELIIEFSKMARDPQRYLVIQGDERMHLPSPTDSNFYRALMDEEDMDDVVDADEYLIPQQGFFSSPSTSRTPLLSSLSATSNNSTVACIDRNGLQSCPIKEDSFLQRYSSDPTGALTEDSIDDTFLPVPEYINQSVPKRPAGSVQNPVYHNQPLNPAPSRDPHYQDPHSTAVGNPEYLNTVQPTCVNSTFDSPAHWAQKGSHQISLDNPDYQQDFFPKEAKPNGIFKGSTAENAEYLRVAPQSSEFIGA

`COc1cc(N(C)CCN(C)C)c(NC(=O)c2ccncn2)cc1Nc1nccc(-c2cn(C)c3ccccc23)n1`: the 50% inhibitory concentration (IC50) (as a rule, the concentration needed to halve the response being measured) is 1560 nM in the test with NCI-H1975 [1]; 29 nM in [3]; 10 nM in test [6]; 2530 nM with A549 [7]; more than 1000 nM in test [12]; 242 nM in test [17]. Also, the Activity with NCI-H1975 [2] is 46.15%; with NCI-H1975 [4], “Dde”; with NCI-H1975 [5], 57.32%; with NCI-H1975 [9], 31.02%; in the test with NCI-H1975 [10], 50.62%; in the test with NCI-H1975 [11] it was 31.18%. In addition, the Activity result in the test with A549 [13] was “Dde”; with NCI-H1975 [14], “Dde”; in the test on NCI-H1975 [15], 22.67%; in the test on NCI-H1975 [16] it was 12.55%; in the test on NCI-H1975 [20], 30.13%; with A549 [21], “Dde”. Further, the Activity in the test with NCI-H1975 [22] is 18.36%. Also, in test [8], the inhibition (as a rule, the percentage by which the read-out fell short of the control) worked out at 60.8%. Moreover, the inhibition result with NCI-H1975 [18] and in the test on A549 [19] was “Active” throughout.
